This assay has as its target T1, LRRK2 (endogenous, HiBit tagged) (Homo sapiens, UniProt Q5S007).
T1 construct: endogenous in cells; host or cells: HEK293 cells with HiBit knock-in at the endogenous LRRK2 locus, stably expressing firefly luciferase
Kind of assay: Endogenous LRRK2 degradation assay, endogenous gene C-terminally HiBit-tagged in HEK293 cells (Nano-Glo Dual Luciferase). Conditions: endogenous HiBit-tagged LRRK2 in HEK293 cells. Format: cell-based. Summed up: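 LRRK2-HiBit quantified via Nano-Glo Dual Luciferase in HEK293 knock-in cells co-expressing firefly luciferase, after 24 h exposure to compound (1 μM final top, 1:3, 11 points). Values normalised to DMSO median per plate and curve-fitted; Alamar Blue viability run alongside.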

Setting [1] is: 24 hours treatment, read-out: **Endogenous WT Dmax (%).
Setting [2] is: 24 hours treatment, read-out: *Endogenous WT DC50.
[3] abbreviates: 24 hours treatment, read-out: Endogenous WT DC50.
Setting [4] is: 24 hours treatment, read-out: Endogenous WT Dmax.

Where two headings read alike, the source gives them in different places.

What is called Dmax is the greatest extent of degradation seen. In general, DC50 refers to the concentration at which degradation of the target reaches its halfway point.

T1 sequence (Q5S007 whole entry): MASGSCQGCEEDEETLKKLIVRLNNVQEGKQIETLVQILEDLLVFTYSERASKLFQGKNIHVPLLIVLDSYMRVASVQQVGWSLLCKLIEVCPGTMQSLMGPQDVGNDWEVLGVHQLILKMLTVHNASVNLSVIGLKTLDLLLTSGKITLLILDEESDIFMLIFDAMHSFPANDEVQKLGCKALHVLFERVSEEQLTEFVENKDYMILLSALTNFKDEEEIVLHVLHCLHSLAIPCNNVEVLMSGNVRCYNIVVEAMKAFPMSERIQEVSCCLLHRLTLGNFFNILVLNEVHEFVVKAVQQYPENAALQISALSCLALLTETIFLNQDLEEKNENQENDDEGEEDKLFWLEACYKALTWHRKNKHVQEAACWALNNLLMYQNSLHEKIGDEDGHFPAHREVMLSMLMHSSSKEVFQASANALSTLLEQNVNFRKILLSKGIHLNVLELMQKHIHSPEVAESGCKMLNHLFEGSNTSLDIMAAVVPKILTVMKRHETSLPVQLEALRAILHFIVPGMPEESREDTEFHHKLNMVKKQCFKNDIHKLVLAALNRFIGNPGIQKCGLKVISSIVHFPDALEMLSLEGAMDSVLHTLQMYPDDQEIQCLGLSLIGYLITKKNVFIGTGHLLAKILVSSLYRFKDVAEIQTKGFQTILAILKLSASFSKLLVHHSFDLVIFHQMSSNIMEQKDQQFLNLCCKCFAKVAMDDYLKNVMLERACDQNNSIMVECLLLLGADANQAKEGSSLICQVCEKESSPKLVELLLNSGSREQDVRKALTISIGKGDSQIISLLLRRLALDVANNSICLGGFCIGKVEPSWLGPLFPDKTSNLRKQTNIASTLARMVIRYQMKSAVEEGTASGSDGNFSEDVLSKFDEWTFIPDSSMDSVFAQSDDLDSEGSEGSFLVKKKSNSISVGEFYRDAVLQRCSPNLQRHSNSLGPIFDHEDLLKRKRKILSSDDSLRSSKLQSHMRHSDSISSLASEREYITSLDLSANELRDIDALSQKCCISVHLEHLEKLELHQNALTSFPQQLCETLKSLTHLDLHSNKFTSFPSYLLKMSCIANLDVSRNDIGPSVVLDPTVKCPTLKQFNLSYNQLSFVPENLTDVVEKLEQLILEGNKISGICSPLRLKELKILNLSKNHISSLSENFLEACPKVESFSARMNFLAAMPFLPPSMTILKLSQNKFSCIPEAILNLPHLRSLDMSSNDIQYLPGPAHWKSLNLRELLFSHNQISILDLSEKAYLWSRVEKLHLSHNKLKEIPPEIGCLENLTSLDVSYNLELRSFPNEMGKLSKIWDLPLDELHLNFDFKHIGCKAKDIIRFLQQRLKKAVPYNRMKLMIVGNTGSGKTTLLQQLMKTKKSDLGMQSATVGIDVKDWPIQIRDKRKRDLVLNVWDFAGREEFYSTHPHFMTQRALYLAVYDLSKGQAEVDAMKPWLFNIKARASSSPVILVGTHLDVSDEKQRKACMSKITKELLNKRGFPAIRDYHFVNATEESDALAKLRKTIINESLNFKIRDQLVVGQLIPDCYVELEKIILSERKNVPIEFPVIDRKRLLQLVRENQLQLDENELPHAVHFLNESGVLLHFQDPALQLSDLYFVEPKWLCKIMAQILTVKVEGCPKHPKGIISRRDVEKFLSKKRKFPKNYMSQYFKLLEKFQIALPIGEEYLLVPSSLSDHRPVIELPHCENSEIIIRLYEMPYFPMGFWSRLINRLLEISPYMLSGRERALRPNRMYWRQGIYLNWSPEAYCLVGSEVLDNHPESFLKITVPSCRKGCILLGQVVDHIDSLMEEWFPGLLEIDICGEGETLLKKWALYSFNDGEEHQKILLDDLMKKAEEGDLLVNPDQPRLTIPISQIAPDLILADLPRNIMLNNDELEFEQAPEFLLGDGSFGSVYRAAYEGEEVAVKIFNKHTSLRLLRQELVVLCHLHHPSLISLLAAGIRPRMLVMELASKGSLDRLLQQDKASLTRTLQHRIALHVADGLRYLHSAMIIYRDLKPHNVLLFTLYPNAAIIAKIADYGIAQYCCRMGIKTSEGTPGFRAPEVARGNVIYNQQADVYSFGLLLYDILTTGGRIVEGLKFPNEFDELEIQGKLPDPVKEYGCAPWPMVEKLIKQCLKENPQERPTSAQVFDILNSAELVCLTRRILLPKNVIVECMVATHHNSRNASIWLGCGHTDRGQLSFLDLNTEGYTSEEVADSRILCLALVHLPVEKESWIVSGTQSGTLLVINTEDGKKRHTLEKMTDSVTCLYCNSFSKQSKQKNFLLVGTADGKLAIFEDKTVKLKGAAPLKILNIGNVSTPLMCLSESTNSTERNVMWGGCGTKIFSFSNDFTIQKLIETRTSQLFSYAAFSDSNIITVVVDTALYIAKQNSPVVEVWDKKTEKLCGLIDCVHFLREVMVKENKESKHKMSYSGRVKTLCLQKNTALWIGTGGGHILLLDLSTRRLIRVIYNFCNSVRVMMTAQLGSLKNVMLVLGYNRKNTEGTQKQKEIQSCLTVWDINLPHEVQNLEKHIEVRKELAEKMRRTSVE

Turning to `CC1(Oc2cc3c(-c4cc(N5CCN(C[C@H]6CC[C@H](CN7CCN(c8ccc9c(c8F)CN(C8CCC(=O)NC8=O)C9=O)CC7)CC6)CC5)ncn4)n[nH]c3cn2)CC1` (stereo partly drawn) [Compound 267, 3-[4-fluoro-1-oxo-5-(4-{[(1r,4r)-4-[(4-{6-[5-(1-methylcyclopropoxy)-1H-pyrazolo[3,4-c]pyridin-3-yl]pyrimidin-4-yl}piperazin-1-yl)methyl]cyclohexyl]methyl}piperazin-1-yl)-2,3-dihydro-1H-isoindol-2-yl]piperidine-2,6-dione], under setting [1], the Dmax was ≥ 70%. Further, the DC50 under setting [2] was < 10 nM.

Regarding `CC1(Oc2ccc3n[nH]c(-c4cc(N5CCC(CO[C@H]6C[C@H](N7CCC(c8ccc9c(c8F)CN(C8CCC(=O)NC8=O)C9=O)CC7)C6)CC5)ncn4)c3c2)CC1` (stereo partly drawn) [Compound 292, 3-(4-fluoro-1-oxo-5-{1-[(1r,3r)-3-[(1-{6-[5-(1-methylcyclopropoxy)-2H-indazol-3-yl]pyrimidin-4-yl}piperidin-4-yl)methoxy]cyclobutyl]piperidin-4-yl}-2,3-dihydro-1H-isoindol-2-yl)piperidine-2,6-dione], the Dmax under setting [1] fell in the range of 50 to 70%. Further, the DC50 under setting [2] is < 10 nM.

As for `C[C@@H]1CN(CC2CCN(c3ccc4c(c3F)CN(C3CCC(=O)NC3=O)C4=O)CC2)C[C@H](C)N1CC1CCN(c2cc(-c3n[nH]c4ccc(OC5(C)CC5)cc34)ncn2)CC1` (stereo partly drawn) [Compound 284, 3-[5-(4-{[(3R,5S)-3,5-dimethyl-4-[(1-{6-[5-(1-methylcyclopropoxy)-1H-indazol-3-yl]pyrimidin-4-yl}piperidin-4-yl)methyl]piperazin-1-yl]methyl}piperidin-1-yl)-4-fluoro-1-oxo-2,3-dihydro-1H-isoindol-2-yl]piperidine-2,6-dione], the Dmax under setting [1] lay within 50 to 70%. In addition, the DC50 under setting [2] was < 10 nM.

Regarding `COc1c(N2CCC(CN3CC[C@H](OC4CCN(c5cc(-c6n[nH]c7ccc(OC8(C)CC8)cc67)ncn5)CC4)CC3(C)C)CC2)ccc2c1CN(C1CCC(=O)NC1=O)C2=O` (stereo partly drawn) [Compound 325, 3-(5-(4-(((S)-2,2-dimethyl-4-((1-(6-(5-(1-methylcyclopropoxy)-1H-indazol-3-yl)pyrimidin-4-yl)piperidin-4-yl)oxy)piperidin-1-yl)methyl)piperidin-1-yl)-4-methoxy-1-oxoisoindolin-2-yl)piperidine-2,6-dione], the Dmax under setting [1] lay in the range of 50 to 70%. Also, the DC50 under setting [2] is < 10 nM.

As for `COc1c(N2CCN(C[C@H]3CC[C@H](OC4CCN(c5cc(-c6n[nH]c7ccc(OC8(C)CC8)cc67)ncn5)CC4)CC3)C(C)(C)C2)ccc2c1CN(C1CCC(=O)NC1=O)C2=O` (stereo partly drawn) [Compound 364, 3-[5-(3,3-dimethyl-4-{[(1r,4r)-4-[(1-{6-[5-(1-methylcyclopropoxy)-1H-indazol-3-yl]pyrimidin-4-yl}piperidin-4-yl)oxy]cyclohexyl]methyl}piperazin-1-yl)-4-methoxy-1-oxo-2,3-dihydro-1H-isoindol-2-yl]piperidine-2,6-dione], the DC50 under setting [3] was < 10 nM. Moreover, the Dmax under setting [4] lay in the range of 50 to 70%.

With `CC1(Oc2ccc3n[nH]c(-c4cc(N5CCC(CN6CCN(CC7CCN(c8ccc(F)c9c8CN(C8CCC(=O)NC8=O)C9=O)CC7)CC6)CC5)ncn4)c3c2)CC1` (stereo not drawn) [Compound 214, 3-[7-fluoro-4-[4-[[4-[[1-[6-[5-(1-methylcyclopropoxy)-2H-indazol-3-yl]pyrimidin-4-yl]-4-piperidyl]methyl]piperazin-1-yl]methyl]-1-piperidyl]-1-oxo-isoindolin-2-yl]piperidine-2,6-dione], the DC50 under setting [3] was < 10 nM. For the same compound, under setting [4], the Dmax is ≥ 70%.

As for `CC1(Oc2ccc3n[nH]c(-c4cc(N5CCC(O[C@H]6CC[C@H](OC7CCN(c8ccc9c(c8F)CN(C8CCC(=O)NC8=O)C9=O)CC7)CC6)CC5)ncn4)c3c2)CC1` (stereo partly drawn) [Compound 228, 3-[4-fluoro-5-[4-[4-[[1-[6-[5-(1-methylcyclopropoxy)-2H-indazol-3-yl]pyrimidin-4-yl]-4-piperidyl]oxy]cyclohexoxy]-1-piperidyl]-1-oxo-isoindolin-2-yl]piperidine-2,6-dione], under setting [3], the DC50 fell in the range of 10 to 50 nM. Further, the maximal degradation (Dmax) under setting [4] lay within 50 to 70%.

`CC1(Oc2ccc3[nH]nc(-c4cc(N5CCN(CCN6CCC7(CN(c8ccc9c(c8F)CN(C8CCC(=O)NC8=O)C9=O)C7)C(F)(F)C6)CC5)ncn4)c3c2)CC1` (stereo not drawn) [Compound 336, 3-(5-{5,5-difluoro-7-[2-(4-{6-[5-(1-methylcyclopropoxy)-1H-indazol-3-yl]pyrimidin-4-yl}piperazin-1-yl)ethyl]-2,7-diazaspiro[3.5]nonan-2-yl}-4-fluoro-1-oxo-2,3-dihydro-1H-isoindol-2-yl)piperidine-2,6-dione]: the Dmax under setting [1] lay within 50 to 70%. The DC50 under setting [2] is < 10 nM.

Consider `CC1(Oc2ccc3[nH]nc(-c4cc(N5CCC(CN6CCN(CC7CCN(c8ccc9c(c8F)CN(C8CCC(=O)NC8=O)C9=O)CC7)C(C)(C)C6)CC5)ncn4)c3c2)CC1` (stereo not drawn) [Compound 236, 3-[5-[4-[[2,2-dimethyl-4-[[1-[6-[5-(1-methylcyclopropoxy)-1H-indazol-3-yl]pyrimidin-4-yl]-4-piperidyl]methyl]piperazin-1-yl]methyl]-1-piperidyl]-4-fluoro-1-oxo-isoindolin-2-yl]piperidine-2,6-dione], for which, under setting [3], the 50% degradation concentration (DC50) was < 10 nM. The Dmax under setting [4] was 50 to 70%.

`C[C@H]1CN(c2cc(-c3[nH]nc4ccc(OC5(C)CC5)cc34)ncn2)CCN1CCC1CCN(C(=O)C2CCN(c3ccc4c(c3)C(=O)N(C3CCC(=O)NC3=O)C4=O)CC2)CC1` (stereo partly drawn) [Compound 57, 2-(2,6-dioxopiperidin-3-yl)-5-[4-(4-{2-[(2S)-2-methyl-4-{6-[5-(1-methylcyclopropoxy)-2H-indazol-3-yl]pyrimidin-4-yl}piperazin-1-yl]ethyl}piperidine-1-carbonyl)piperidin-1-yl]-2,3-dihydro-1H-isoindole-1,3-dione]: the Dmax (24 hours, read-out: **Endogenous WT Dmax (%)) was ≥ 70%. The DC50 (24 hours, read-out: *Endogenous WT DC50) is < 10 nM.

As for `COc1c(N2CCC(O[C@H]3C[C@H](N4CC5(CCN(c6cc(-c7[nH]nc8ccc(OC9(C)CC9)cc78)ncn6)CC5)C4)C3)CC2)ccc2c1CN(C1CCC(=O)NC1=O)C2=O` (stereo partly drawn) [Compound 347, 3-(4-methoxy-1-oxo-5-{4-[(1r,3r)-3-(7-{6-[5-(1-methylcyclopropoxy)-2H-indazol-3-yl]pyrimidin-4-yl}-2,7-diazaspiro[3.5]nonan-2-yl)cyclobutoxy]piperidin-1-yl}-2,3-dihydro-1H-isoindol-2-yl)piperidine-2,6-dione], the Dmax under setting [1] fell in the range of 50 to 70%. The DC50 under setting [2] was < 10 nM.

Turning to `CC1(Oc2ccc3n[nH]c(-c4cc(N5CCC(O[C@H]6CC[C@H](OC7CCN(c8ccc9c(c8F)CN(C8CCC(=O)NC8=O)C9=O)CC7)C6)CC5)ncn4)c3c2)CC1` (mixture of isomers) [Compound 240, 3-[4-fluoro-5-[4-[(1S,3S)-3-[[1-[6-[5-(1-methylcyclopropoxy)-2H-indazol-3-yl]pyrimidin-4-yl]-4-piperidyl]oxy]cyclopentoxy]-1-piperidyl]-1-oxo-isoindolin-2-yl]piperidine-2,6-dione and 3-[4-fluoro-5-[4-[(1R,3R)-3-[[1-[6-[5-(1-methylcyclopropoxy)-2H-indazol-3-yl]pyrimidin-4-yl]-4-piperidyl]oxy]cyclopentoxy]-1-piperidyl]-1-oxo-isoindolin-2-yl]piperidine-2,6-dione], the DC50 under setting [3] was < 10 nM. For the same compound, the Dmax under setting [4] fell in the range of 50 to 70%.

Regarding `C[C@H]1CN(CC2(F)CCN(CC3CCN(c4cc(-c5n[nH]c6ccc(OC7(C)CC7)cc56)ncn4)CC3)CC2)CCN1c1ccc2c(c1F)CN(C1CCC(=O)NC1=O)C2=O` (stereo partly drawn) [Compound 355, 3-{4-fluoro-5-[(2S)-4-({4-fluoro-1-[(1-{6-[5-(1-methylcyclopropoxy)-1H-indazol-3-yl]pyrimidin-4-yl}piperidin-4-yl)methyl]piperidin-4-yl}methyl)-2-methylpiperazin-1-yl]-1-oxo-2,3-dihydro-1H-isoindol-2-yl}piperidine-2,6-dione], the Dmax under setting [1] was in the range of 50 to 70%. In addition, the half-maximal degradation concentration (DC50) under setting [2] was < 10 nM.

As for `C[C@H]1CN(c2ccc3c(c2F)CN(C2CCC(=O)NC2=O)C3=O)CCN1C[C@H]1CC[C@H](OC2CCN(c3cc(-c4n[nH]c5ccc(OC6(C)CC6)cc45)ncn3)CC2)CC1` (stereo partly drawn) [Compound 346, 3-{4-fluoro-5-[(3S)-3-methyl-4-{[(1r,4r)-4-[(1-{6-[5-(1-methylcyclopropoxy)-1H-indazol-3-yl]pyrimidin-4-yl}piperidin-4-yl)oxy]cyclohexyl]methyl}piperazin-1-yl]-1-oxo-2,3-dihydro-1H-isoindol-2-yl}piperidine-2,6-dione], the Dmax under setting [1] was in the range of 50 to 70%. For the same compound, the DC50 under setting [2] is < 10 nM.

In the case of `COc1c(N2CCC(O[C@H]3CC[C@H](CN4CCN(c5cc(-c6n[nH]c7ccc(OC8(C)CC8)cc67)ncn5)C[C@@H]4C)CC3)CC2)ccc2c1CN(C1CCC(=O)NC1=O)C2=O` (stereo partly drawn) [Compound 366, 3-[4-methoxy-1-oxo-5-(4-{[(1r,4r)-4-{[(2S)-2-methyl-4-{6-[5-(1-methylcyclopropoxy)-1H-indazol-3-yl]pyrimidin-4-yl}piperazin-1-yl]methyl}cyclohexyl]oxy}piperidin-1-yl)-2,3-dihydro-1H-isoindol-2-yl]piperidine-2,6-dione], under setting [3], the DC50 is < 10 nM. Besides, the Dmax under setting [4] is 50 to 70%.

Values taken from patent US12559506B2, “Indazole based compounds and associated methods of use” (Arvinas Operations, Inc., priority 2021, dated 2026).
